Measurements published in patent publication US11752162B2, “Compounds and compositions for treating solid tumors by intratumoral administration” (Novartis AG, priority 2017, dated 2023).

Key:
[1] = Wistar rat subcutaneous PK dose study (Example 9); format: in vivo; conditions: sc, 600 ug, 600 μg Compound 15 s.c., male Wistar rats, plasma
Procedure: The pharmacokinetic properties of Compound 15 were examined in naïve male Wistar rats following: • a) a single 200 μL subcutaneous (s.c.) injection of 600 μg of free form Compound 15 in 100 mM Tris buffer pH 7.4; • b) a single 200 μL subcutaneous (s.c.) injection of 50 μg of Compound 15 adsorbed to aluminum hydroxide at a 1:2.5 ratio (w/w) of Compound 15 to aluminum hydroxide-Suspension E described below; • c) a single 200 μL subcutaneous (s.c.) injection of 200 μg of Compound 15 adsorbed to aluminum hydroxide at a 1:2.5 ratio (w/w) of Compound 15 to aluminum hydroxide-Suspension D described below, and • d) a single 200 μL subcutaneous (s.c.) injection of 600 μg of Compound 15 adsorbed to aluminum hydroxide at a 1:2.5 ratio (w/w) of Compound 15 to aluminum hydroxide-Suspension C described below.
In this study, male Wistar rats (n=3 per group) were injected subcutaneously (s.c.) with 600 μg free Compound 15 or increasing doses of 50, 200 and 600 μg of Compound 15 absorbed to aluminum hydroxide. An injection volume of 200 μL of Suspension E, Suspension D and Suspension C was used to obtain 50, 200 and 600 μg of Compound 15 absorbed to aluminum hydroxide, respectively. The injection volume of 200 μL per rat was not normalized to body weights of the rats. As described above the Compound 15/aluminum hydroxide ratio for Suspension E, Suspension D and Suspension C was fixed at 1:2.5 w/w.
(§1) Blood samples (˜100 μL each) were taken serially via saphenous bleed from each rat until 96 h post dose (see Table 9 for sampling schedule). Blood samples were centrifuged to separate plasma and the plasma samples were frozen at −20° C. prior to analysis using LC/MS/MS (as described in Example 5) to obtain the systemic concentrations of Compound 15.

[2] = Extent of Compound 15 binding to Alhydrogel (% bound) in the suspension; format: physicochemical; conditions: for % bound (Compound 15 adsorbed to aluminum hydroxide): 100 mM Tris buffer (pH 7.4)
Procedure: In the preparation of the Compound 15/Alhydrogel® suspension used in the Examples herein, the stock suspension of Alhydrogel® was filtered by gravity filtration through a 100 μm cell strainer before mixing with stock solution comprising Compound 15. The resulting mixture/suspension was stirred for 5 minutes to allow Compound 15 to adsorb/bind to the aluminum of Alhydrogel®.
To determine the extent of Compound 15 binding to Alhydrogel® (i.e. % bound) in the Compound 15/Alhydrogel® suspension used in the Examples herein, aliquots of the suspension were centrifuged to pellet the bound Compound 15/Alhydrogel® (e.g. 21,000×g for 10 min), and the amount of free Compound 15 in the supernatant was analyzed by HPLC/UV or LC/MS/MS.

[3] = Wistar rat subcutaneous PK, fixed aluminum hydroxide 5 mg/mL (Example 10); format: in vivo
Procedure: The pharmacokinetic properties of Compound 15 were examined in naïve male Wistar rats following: • a) a single 200 μL subcutaneous (s.c.) injection of 600 μg of free form Compound 15 in 100 mM Tris buffer pH 7.4; • b) a single 200 μL subcutaneous (s.c.) injection of 50 μg of Compound 15 adsorbed to aluminum hydroxide at a 1:20 ratio (w/w) of Compound 15 to aluminum hydroxide-Suspension G described below; • and • c) a single 200 μL subcutaneous (s.c.) injection of 600 μg of Compound 15 adsorbed to aluminum hydroxide at a 1:1.7 ratio (w/w) of Compound 15 to aluminum hydroxide-Suspension F described below.
The systemic concentration of Compound 15 was evaluated following a single 200 μL subcutaneous injection of two different dose levels of Compound 15 adsorbed to aluminum hydroxide, where the aluminum hydroxide was at a fixed dose concentration of 5 mg/mL.
In this study, two groups male Wistar rats (n=3 per group) were injected subcutaneously (s.c.) with either 50 μg or 600 μg of Compound 15 absorbed to aluminum hydroxide. An injection volume of 200 μL of Suspension G and Suspension F was used to obtain 50 and 600 μg of Compound 15 absorbed to aluminum hydroxide, respectively. The injection volume of 200 μL per rat was not normalized to body weights of the rats. As described above the Compound 15/aluminum hydroxide ratio for Suspension F was 1:1.7 w/w, while for Suspension G it was 1:20 w/w.
as §1, with “168” for “96”

[4] = Mouse plasma PK, MC38 syngeneic tumor model, one week study; format: in vivo; conditions: female, C57BL/6, mouse, 100 ug, 100 μg Compound 15, single i.t. injection, MC38 tumor bearing mice
[5] = rat, sc, 600 ug, 600 μg Compound 15 s.c., male Wistar rats, plasma, Table 15 (free compound data from Example 9)

AUC(0-inf) [1]: 2560 ng·h/mL
Cmax [1]: 3660 ng/mL
Tmax [1]: 15 min
half-life [1]: 126 min
% bound (Compound 15 adsorbed to aluminum hydroxide) ([2]; 50 μg dose formulation, 1:2.5 w/w ratio): 91%
% bound (Compound 15 adsorbed to aluminum hydroxide) ([2]; 200 μg dose formulation, 1:2.5 w/w ratio): 94%
% bound (Compound 15 adsorbed to aluminum hydroxide) ([2]; 600 μg dose formulation, 1:2.5 w/w ratio): 97%
% bound (Compound 15 adsorbed to aluminum hydroxide) ([2]; 50 kg/50 μg (so in the source) dose formulation, 1:20 w/w ratio): 98%
% bound (Compound 15 adsorbed to aluminum hydroxide) ([2]; 600 kg (so in the source) dose formulation, 1:1.7 w/w ratio): 98%
% bound (Compound 15/aluminum hydroxide) ([2]; fixed ratio of 1:1.5 w/w, A20 study formulation): 97%
retention of Compound 15 at the local injection site ([3]; adsorbed onto aluminum hydroxide, following subcutaneous injection, rats): up to 1 week
AUC(0-inf) [3, 5]: 2560 ng·h/mL
Cmax [3, 5]: 3660 ng/mL
Tmax [3, 5]: 15 min
half-life [3, 5]: 126 min
AUC(0-inf) [4]: 6220 ng·h/mL
Cmax [4]: 10600 ng/mL
Tmax [4]: 4.98 min
half-life ([4]; other: intra-tumoral (i.t.) injection): 159 min
Compound: Cc1cc(OCCOCCC(F)(F)P(=O)(O)O)ccc1CCc1cnc2c(N)nc3cc(CCC(=O)O)ccc3c2c1 [Compound 15, 3-(5-amino-2-(4-(2-(3,3-difluoro-3-phosphonopropoxy)ethoxy)-2-methylphenethyl)benzo[f][1,7]naphthyridin-8-yl)propanoic acid]
